{"source": "patent US6521641B1", "about": "“Male anti-fertility agents” (Allergan, Inc., priority 1998, dated 2003)", "key": {"Sprague-Dawley rats [1]": {"system": "Sprague-Dawley rats", "details": "for epididymis histology: high dose rats", "method": "Ninety-eight male and ninety-eight female Sprague-Dawley (Crl:CD®(SD) IGS BR) Charles River, Hollister, Calif. 95023) rats, approximately 8 to 10 weeks old, were used for the study. The rats were divided into the following groups: non-treated control, vehicle control, 0.005 mg/kg/day, 0.015 mg/kg/day and 0.15 mg/kg/day AGN 194310. AGN 194310 has the following chemical structure: [drawing 18]\nThe AGN 194310 compound was provided as follows: the compound was dissolved in capric/caprylic triglyceride (CCT) at a variety of doses, either 0.001% (v/v) AGN 194310, 0.003% (v/v) AGN 194310, or 0.01% (v/v) AGN 194310.\nOne hundred ninety-six animals were distributed into thirteen groups as follows: Groups 1 through 5 were Main Study groups. Groups 6-9 were used for Toxicokinetic studies. Groups 10-13 were Main Study Recovery groups.\n(§1) The drug was administered using a graduated syringe and a 20×3 inch animal feeding needle. Drug was given to each animal in a single dose per day.\n(§2) Urine was collected from animals in the Main Study and Recovery groups during week 4 of the treatment period, and from Recovery group animals during week 4 of the recovery period. Urine was analyzed for: blood (hemoglobin and erythrocytes), bilirubin, color, glucose, ketones, leukocytes, microscopic evaluations of any urine sediment, […], pH, protein, specific gravity, transparency, and urobilinogen.\n(§3) Animals were euthanized by inhalation of carbon dioxide. A complete necropsy was performed on all Main Study and Recovery group animals that died, or were euthanized due to moribund conditions, or were euthanized on scheduled sacrifice.\nThe following organs were weighed for necroscopized animals: adrenal glands, ovaries, kidneys, pituitary gland, liver, spleen, heart, testes, and brain. In the case of organ pairs, both organs were weighed together.\nThe following tissues and organs were isolated, trimmed if necessary, and preserved in 10% buffered formalin for histopathological evaluation: adrenal glands, mammary gland (with skin), aorta, ovaries, bone/bone marrow, pancreas, femur, pituitary gland, tibia, prostate gland, knee joint, salivary glands, parotid, brain, sub-maxillary, cervix sciatic nerve, diaphragm, seminal vesicle, epididymides, skeletal muscle (thigh), eyes, spinal chord (thoracic), spleen, esophagus, sternum, stomach, testes, duodenum, thymus, jejunum, thyroid gland with parathyroids, ileum, any tissues with lesion(s), cecum, tongue, colon, trachea, heart, bladder, kidneys, uterus, liver, ureter, lungs, urethra, lymph nodes (vaginal, cervical, mediastinal, mesenteric).\nTarget tissues and organs from the Vehicle (control) and high-dose groups were imbedded in paraffin, and tissue sections made. The sections were mounted and stained with hematoxylin and eosin using standard histological techniques; such histopathological evaluation was performed using techniques well known in the art.\nIn the Recovery dosage groups that were so evaluated, the selected tissues were prepared and evaluated as set forth above."}, "[2]": {"assay": "Toxicokinetics of oral AGN 194310 in rats (drug in blood by GC/MS)", "type": "in vivo, rat", "details": "for Tmax / Cmax / AUC(0-t): both sexes, Sprague-Dawley, rat, whole blood; for Tmax: Day 22; for Cmax / AUC(0-t): po; for Cmax: N = 8; for AUC(0-t): N = 8, read-out: AUC24 hr", "method": "The concentration of drug in the blood was determined from blood drawn from the retro-orbital sinus of the right eye on Day 7 of the study as follows: for rats in groups 7 through 9 (4/sex/group/timepoint, with each animal being bled no more than 3 times), blood (approximately 1 ml) was drawn prior to being given the drug, and at approximately 2, 6, 8, 12 and 24 hours post-dosing. The vehicle-treated rats (group 6) were bled at approximately 8 and 24 hours post-dosing. The rats in groups 6 through 9 were similarly bled on Day 22 of the study, then euthanized. All blood was drawn into tubes containing EDTA to prevent coagulation, and placed on ice prior to analysis. The blood was assayed for the presence of AGN 194310 by gas chromatography/mass spectrometry.\nAGN 194310 was systemically absorbed following oral administration to rats and approached the peak concentration in plasma (Cmax) at 2 or 6 hours post dosing (Tmax)."}, "Sprague-Dawley rats [3]": {"system": "Sprague-Dawley rats", "method": "as §1\nAnimals were weighed on the first day of the study and once per week thereafter, and the body weights recorded. The body weights were used for the dosage calculations. For all the Main Study and Recovery animals, food (Purina Certified Rodent Chow, meal form) was placed into tared glass jars and left in the animal cages. Jars were removed and weighed once weekly. Food was added to the jars when necessary. Food consumption was not recorded for the animals used in the toxicokinetic satellite studies.\nas §2, §3"}, "[4]": {"assay": "Excretion of the drug (separate experiment)", "type": "in vivo", "details": "within 2 weeks following treatment"}, "male cynomologus monkeys": {"system": "male cynomologus monkeys", "assay": "Preliminary test of AGN 194310 in male cynomologus monkeys", "type": "in vivo, cynomologus monkey", "details": "5 male cynomologus monkeys, daily dosage of 1.25 mg/kg", "source_text": "Those of skill in the art will also recognize that both rats and monkeys are commonly used and accepted animal models for drug efficacy in humans."}, "Stability to light": {"assay": "Stability to light", "type": "physicochemical"}, "[5]": {"details": "male rats of the Recovery group, approximately one month without drug"}}, "note": "Read-outs that look alike come from different tables or passages of the source.", "data": [{"compound": "CCc1ccc(C2=CC(C)(C)Sc3ccc(C#Cc4ccc(C(=O)O)cc4)cc32)cc1", "note": "[AGN 194310, 4-[[4-(4-ethylphenyl)-2,2-dimethyl-(2H)-thiochromen-6-yl]-ethynyl]-benzoic acid]", "values": [{"measurement": "germinal cell layers lining the seminiferous tubules", "setting": "Sprague-Dawley rats [1]; high dose males 0.15 mg/kg/day, usual four or more layers in normal tubules", "value": "one to two layers of germinal cells"}, {"measurement": "epididymis histology", "setting": "Sprague-Dawley rats [1]; end of recovery", "value": "absence of stored epididymal sperm"}, {"measurement": "epididymis histology", "setting": "Sprague-Dawley rats [1]; end of treatment", "value": "increase in exfoliated cells"}, {"measurement": "reversibility of inhibition (focal increase in germ cell layers in individual tubules)", "setting": "Sprague-Dawley rats [1]; [5]", "value": "reversibility of such inhibition was also evident"}, {"measurement": "spermatogenesis (morphology)", "setting": "Sprague-Dawley rats [1]; [5]", "value": "continuing cessation of spermatogenesis"}, {"measurement": "testicular atrophy", "setting": "Sprague-Dawley rats [1]; [5]", "value": "testicular atrophy was evident"}, {"measurement": "spermatozoa counts in urine", "setting": "Sprague-Dawley rats [1]; male rats, oral 0.15 mg/kg/day, Recovery group, end of the recovery period", "value": "no spermatozoa counts"}, {"measurement": "testes size at postmortem examination", "setting": "Sprague-Dawley rats [1]; male rats, oral 0.15 mg/kg/day, end of the recovery period", "value": "apparent reduction of testes size in all five male rats"}, {"measurement": "testes weight", "setting": "Sprague-Dawley rats [1]; male rats, oral high dose 0.15 mg/kg/day, end of the treatment and recovery periods", "value": "reduction in testes weight"}, {"measurement": "spermatogenic arrest (testes histology)", "setting": "Sprague-Dawley rats [1]; male rats, oral intermediate dose 0.015 mg/kg/day, end of treatment", "value": "No such effect"}, {"measurement": "spermatogenic arrest (testes histology)", "setting": "Sprague-Dawley rats [1]; male rats, oral low dose 0.005 mg/kg/day, end of treatment", "value": "No such effect"}, {"measurement": "testes weight", "setting": "Sprague-Dawley rats [1]; male rats, oral, other dosage groups (0.005 and 0.015 mg/kg/day)", "value": "no statistically significant reduction of testes weight"}, {"measurement": "male rats with spermatogenic arrest (testes histology)", "setting": "Sprague-Dawley rats [1]; oral high dose 0.15 mg/kg/day, end of treatment", "value": "10/10"}, {"measurement": "rats with inflammation or damage to stromal or vascular elements of the testis", "setting": "Sprague-Dawley rats [1]; rat, in vivo", "value": "None"}, {"measurement": "systemic exposure to AGN 194310", "setting": "[2]; across the concentrations of AGN 194310", "value": "dose dependent increase"}, {"measurement": "Tmax", "setting": "[2]; 0.005 mg/kg/day", "value": 2, "unit": "h"}, {"measurement": "Tmax", "setting": "[2]; 0.015 mg/kg/day", "value": 2, "unit": "h"}, {"measurement": "Tmax", "setting": "[2]; 0.15 mg/kg/day", "value": 6, "unit": "h"}, {"measurement": "Cmax", "setting": "[2]; 0.005 mg/kg/day, 0.001% AGN 194310 (0.005 mg/kg/day), Day 7, mean ± SD", "value": "1.83 ± 0.55", "unit": "ng/mL"}, {"measurement": "Cmax", "setting": "[2]; 0.005 mg/kg/day, 0.001% AGN 194310 (0.005 mg/kg/day), Day 22, mean ± SD", "value": "1.97 ± 0.75", "unit": "ng/mL"}, {"measurement": "AUC(0-t)", "setting": "[2]; 0.005 mg/kg/day, Day 7, mean ± SEM", "value": "19.6 ± 1.1", "unit": "ng·h/mL"}, {"measurement": "AUC(0-t)", "setting": "[2]; 0.005 mg/kg/day, Day 22, mean ± SEM", "value": "20.8 ± 1.1", "unit": "ng·h/mL"}, {"measurement": "Cmax", "setting": "[2]; 0.015 mg/kg/day, 0.003% AGN 194310 (0.015 mg/kg/day), Day 7, mean ± SD", "value": "4.73 ± 1.2", "unit": "ng/mL"}, {"measurement": "Cmax", "setting": "[2]; 0.015 mg/kg/day, 0.003% AGN 194310 (0.015 mg/kg/day), Day 22, mean ± SD", "value": "5.32 ± 1.56", "unit": "ng/mL"}, {"measurement": "AUC(0-t)", "setting": "[2]; 0.015 mg/kg/day, Day 7, mean ± SEM", "value": "57.6 ± 2.6", "unit": "ng·h/mL"}, {"measurement": "AUC(0-t)", "setting": "[2]; 0.015 mg/kg/day, Day 22, mean ± SEM", "value": "63.6 ± 2.7", "unit": "ng·h/mL"}, {"measurement": "Cmax", "setting": "[2]; 0.15 mg/kg/day, 0.01% AGN 194310 (0.15 mg/kg/day), Day 7, mean ± SD", "value": "43.1 ± 7.2", "unit": "ng/mL"}, {"measurement": "Cmax", "setting": "[2]; 0.15 mg/kg/day, 0.01% AGN 194310 (0.15 mg/kg/day), Day 22, mean ± SD", "value": "42.4 ± 9.3", "unit": "ng/mL"}, {"measurement": "AUC(0-t)", "setting": "[2]; 0.15 mg/kg/day, Day 7, mean ± SEM", "value": "668 ± 24", "unit": "ng·h/mL"}, {"measurement": "AUC(0-t)", "setting": "[2]; 0.15 mg/kg/day, Day 22, mean ± SEM", "value": "675 ± 25", "unit": "ng·h/mL"}, {"measurement": "urinalysis parameters", "setting": "Sprague-Dawley rats [3]; rat, in vivo, po", "value": "no apparent treatment-related effects"}, {"measurement": "treatment-related deaths", "setting": "Sprague-Dawley rats [3]; rats, oral, 0.005-0.15 mg/kg/day, course of the study", "value": "No treatment-related deaths"}, {"measurement": "postmortem pathological examination", "setting": "Sprague-Dawley rats [3]; rats, oral, end of the treatment period", "value": "no noticeable differences"}, {"measurement": "drug excreted", "setting": "[4]", "value": 88, "unit": "%"}, {"measurement": "inhibition or arrest of spermatogenesis", "setting": "male cynomologus monkeys", "value": "did not result in inhibition or arrest of spermatogenesis"}, {"measurement": "stability to normal light", "setting": "Stability to light", "value": "relatively stable to normal light"}]}]}
